Measured values published in PMC10066226, “An ultra-high-throughput screen for the evaluation of peptide HLA-Binder interactions” (Scientific Reports, 2023).

biological target: model TCER IMAHiAff#1; test: BLI measurements (Octet RED384) of peptide-loaded disulfide-stabilized pHLA; assay type: binding; conditions: not given
Source text: In order to confirm our results obtained from the ultra high throughput highSCORE measurements, we compared the KD values with the corresponding ones from BLI measurements (Fig. 4). The direct correlation between the two methods can be described as a hockey stick. Many peptides with single amino acid mutations show similar KD values as the WT peptide. This is especially the case for KD values obtained from the highSCORE measurements. Within the BLI data set, most of the library peptides show a higher KD value compared to the corresponding WT peptide (Fig. 4a). This relation results in a flat region within the correlation plot. All other peptide, with the exception of the ones highlighted with an arrow, show a good linear correlation between both data sets. It is important to note that while the spectroscopic principle behind BLI and highSCORE is similar, the experimental procedure is different. Using BLI, the pHLA complexes are bound to a sensor tip, which is dipped into a microtiter plate well containing the analyte. Thereafter, the sensor tip is wiggled within the well to ensure that the analyte is not depleted on the surface. In contrast, during a highSCORE measurement, the analyte is flushed over the microarray using a thin flow chamber. This makes the experimental procedure of a highSCORE measurement more similar to that of an SPR device. Consequently, differences in the KD values between BLI and highSCORE measurements are to be expected and might explain the shift in the overall distribution of the KD values (Fig. 4b). […] Since both measurement methods have their own advantages and disadvantages, it is difficult to tell which of the two methods provides the values that are closest to reality.
BLI measurements were performed on an Octet RED384 system using anti-Penta-His biosensors. In short, disulfide-stabilized molecules were refolded and peptide-loaded as previously described. All analytes or ligands were diluted to their final concentration in kinetics buffer (PBS, 0.1% BSA, 0.05% Tween-20) if not specified otherwise. All biosensors were hydrated for at least 10 minutes in kinetics buffer before use. Loadings and measurements were performed in 384 tilted well plates (Pall Fortébio) with at least 40 μ l at a 3 mm sensor offset. Plate temperature was set at 30 ^∘ C and shaker speed at 1000 rpm. To generate a baseline, sensors were dipped in kinetics buffer for 60 s before being loaded with 10 ug/ml of peptide loaded disulfide-stabilized pHLA for 120 s. Afterwards, a second 120 s baseline was recorded before a 60 s association and a 240 s dissociation phase. After individual measurements, sensors were regenerated using 10 mM Glycine pH 1.5 4 times for 5s each before another cycle was performed. 4 TCER concentrations (500nM, 158.1nM, 50nM and 15.8nM) were measured for each pHLA complex. A sensor loaded with an irrelevant pHLA was measured in line for reference sensor subtraction. All sensorgrams were analyzed using the OctetRED software “Data Analysis HT” version 11.0.0.50 (Pall Fortébio). Raw sensor data was aligned at the Y axis by aligning the data to the end of the baseline step, and inter-step correction was used to align the start of the dissociation to the end of the association phase. Savitzky-Golay filtering was applied. Resulting sensorgrams were then fitted using a 1:1 Langmuir kinetics binding model. In case of lower affinity binding events, the lower two concentrations were excluded from the fitting.

Sequence | BLI_KD
SLLQHLDGL [D7] | no fit
SLLQHLEGL [E7] | no fit
SLLQHLIFL [F8] | no fit
SLLQHLIWL [W8] | no fit

same assay, conditions: std in a column of its own

Sequence | BLI_KD
SLLQHLWGL [W7] | no fit
SLLQHPIGL [P6] | no fit
